Laboratory results taken from paper PMC7356228, “Alvaxanthone, a Thymidylate Synthase Inhibitor with Nematocidal and Tumoricidal Activities” (Molecules, 2020).
Like-named read-outs stand apart in the source and are kept apart here.

Tests used:
hTS = target: T1, hTS (Homo sapiens, UniProt P04818); assay: Inhibition of TS-catalyzed reaction (tritium release from [5-3H]dUMP); type: biochemical; settings: for remaining activity at 10 µM: compound 10 µM; for remaining activity at 100 µM: compound 100 µM, read-out: % Remaining Activity
T1 construct: made in house
T1 sequence (P04818 whole entry): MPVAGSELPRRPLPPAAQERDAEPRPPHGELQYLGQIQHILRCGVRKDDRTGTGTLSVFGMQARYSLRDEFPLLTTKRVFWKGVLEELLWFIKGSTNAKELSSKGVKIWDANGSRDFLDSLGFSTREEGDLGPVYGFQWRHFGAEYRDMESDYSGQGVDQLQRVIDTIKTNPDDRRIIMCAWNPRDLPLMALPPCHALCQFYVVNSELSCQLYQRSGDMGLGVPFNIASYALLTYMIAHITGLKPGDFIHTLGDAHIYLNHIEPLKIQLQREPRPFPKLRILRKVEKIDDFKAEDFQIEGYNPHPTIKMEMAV
Text: (§1) The recombinant human, rat, mouse, T. spiralis and C. elegans TS proteins were produced, purified and separated into phosphorylated and non-phosphorylated fraction, as previously described. TS activity was monitored, following tritium release from [5-^3H]dUMP, and its inhibition studied as earlier reported.

mTS = target: T2, mTS (Mus musculus, UniProt P07607); assay: as above; type: biochemical; settings: for remaining activity at 10 µM: compound 10 µM; for remaining activity at 100 µM: compound 100 µM, read-out: % Remaining Activity
T2 construct: made in house
T2 sequence (P07607 whole entry): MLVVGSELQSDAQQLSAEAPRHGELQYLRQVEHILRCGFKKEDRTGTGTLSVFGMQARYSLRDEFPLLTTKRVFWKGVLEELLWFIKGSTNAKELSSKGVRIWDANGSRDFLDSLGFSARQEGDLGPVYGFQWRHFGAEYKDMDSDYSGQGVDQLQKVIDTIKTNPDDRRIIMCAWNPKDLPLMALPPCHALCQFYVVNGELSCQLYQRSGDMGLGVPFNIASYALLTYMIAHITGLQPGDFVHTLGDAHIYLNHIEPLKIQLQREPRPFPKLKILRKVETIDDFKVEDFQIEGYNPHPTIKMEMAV
Text: as §1

CeTS = target: T3, CeTS (Caenorhabditis elegans, UniProt Q9Y052); assay: as above; type: biochemical, C. elegans; settings: for remaining activity at 10 µM: compound 10 µM; for remaining activity at 100 µM: compound 100 µM, read-out: % Remaining Activity
T3 sequence (Q9Y052 1-315): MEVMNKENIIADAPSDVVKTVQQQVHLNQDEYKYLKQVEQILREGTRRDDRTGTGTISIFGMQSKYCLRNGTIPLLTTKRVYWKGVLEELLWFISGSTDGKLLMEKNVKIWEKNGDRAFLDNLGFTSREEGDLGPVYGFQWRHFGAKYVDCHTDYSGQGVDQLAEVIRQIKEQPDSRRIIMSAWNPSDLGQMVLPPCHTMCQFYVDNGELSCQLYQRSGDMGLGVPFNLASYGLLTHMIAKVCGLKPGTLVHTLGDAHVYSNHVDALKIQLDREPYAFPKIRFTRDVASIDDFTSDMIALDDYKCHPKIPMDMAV
Text: as §1

TsTS = TsTS (Trichinella spiralis, UniProt Q9NDD3); assay: as above; type: biochemical, T. spiralis; settings: for remaining activity at 100 µM: compound 100 µM
TsTS, sequence (Q9NDD3 entry or part of it): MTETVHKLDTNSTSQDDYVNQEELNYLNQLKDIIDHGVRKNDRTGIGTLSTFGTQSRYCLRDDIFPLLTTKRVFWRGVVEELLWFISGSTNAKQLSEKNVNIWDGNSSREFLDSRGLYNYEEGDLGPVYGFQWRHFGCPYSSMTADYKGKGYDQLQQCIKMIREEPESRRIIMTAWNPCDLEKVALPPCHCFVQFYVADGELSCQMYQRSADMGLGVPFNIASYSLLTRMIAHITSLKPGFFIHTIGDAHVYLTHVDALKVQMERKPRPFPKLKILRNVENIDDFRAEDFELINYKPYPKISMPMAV
Text: as §1

C. elegans [1] = settings: read-out: LC50 (C. elegans population growth); previously found; cited from earlier work
C. elegans [2] = assay: Toxicity to C. elegans (population growth); settings: Caenorhabditis elegans, read-out: LC50 (reduction of growth of the nematode population)
Description: C. elegans was maintained as previously described. The effect of the compounds studied on C. elegans population growth was determined as earlier presented.

[3] = system: BJ normal human skin fibroblasts; assay: Cytotoxicity, neutral red uptake (NR) assay; type: cell-based; settings: Homo sapiens, Skin fibroblast
Description: (§2) Biological effect of alvaxanthone and rheediaxanthone B on normal (BJ) and cancer cells (U-118 MG and SCC-15) was estimated using two viability assays, the neutral red uptake (NR) and tetrazolium salts reduction (XTT) assays.
(§3) Human glioblastoma cells U-118 MG (ATCC® HTB-15), human squamous carcinoma cells SCC-15 (ATCC® CRL-1623), and normal human skin fibroblasts (ATCC® CRL-2522) were grown, their morphology checked, and number and viability estimated as earlier presented.
(§4) Influence of selected compounds on cells was tested by performing the cytotoxicity (NR and XTT) assays, proliferation assay, cell adhesion assay, cell migration assay, determination of intracellular ATP level, and apoptosis assay as previously reported.

[4] = system: SCC-15 human squamous carcinoma cells; assay: Cytotoxicity, neutral red uptake (NR) assay; type: cell-based; settings: Homo sapiens
Description: as §2, §3, §4

[5] = system: U-118 MG human glioblastoma cells; assay: Cytotoxicity, neutral red uptake (NR) assay; type: cell-based
Description: as §2, §3, §4

[6] = system: BJ, U-118 MG and SCC-15 cells; assay: NR assay, summary over the three cell lines; type: cell-based, human; settings: Homo sapiens, 48 h, span over BJ
Description: as §2
Thus, alvaxanthone may be damaging mitochondria and impairing their metabolism exerting one of possible mechanisms active in destroying cancer cells. Changes of cell morphology in dependence on increasing alvaxanthone and rheediaxanthone B concentration were also recorded. While the glioma and squamous carcinoma cells formed clusters, lost their adhesion, shrank, and accumulated less NR dye, normal fibroblasts preserved rather normal shapes but the amount of the neutral red dye and confluence of cells decreased. In addition, a lower number of BJ cells was detected (Figure 1B).
as §4

BJ cells [7] = assay: Cell adhesion, crystal violet assay; type: cell-based, human; settings: 48-h treatment
Description: (§5) Cancer metastasis, resulting from an impairment of adhesion between cancer cells and the extracellular matrix may cause cell migration from a primary tumor into distant parts of an organism. The cristal violet assay was used to examine alvaxanthone and rheediaxanthone B ability to influence cellular adhesion.
(§6) Figure 3 Influence of alvaxanthone or rheediaxanthone B on BJ, U-118 MG, and SCC-15 cells adhesion after 48-h treatment. The crystal violet assay was used. Results are medians of triplicate assays of three independent experiments expressed as a % of non-treated controls. The whiskers are lower (25%) and upper (75%) quartile ranges. * p ≤ 0.05, Kruskal–Wallis test (against non-treated control).
as §4

SCC-15 cells [8] = assay: Cell adhesion, crystal violet assay; type: cell-based, human; settings: 48-h treatment
Description: as §5, §6, §4

U-118 MG cells [9] = assay: Cell adhesion, crystal violet assay; type: cell-based, human; settings: 48-h treatment
Description: as §5, §6, §4

[10] = system: caspases 3/7 in BJ, U-118 MG, and SCC-15 cells; assay: Apo-ONE Homogenous Caspase-3/7 Assay; type: cell-based, human; settings: 48 h, 5–40 µM, span over the three cell lines
Description: (§7) Figure 4 Changes of caspase-3/7 activities and intracellular ATP level in BJ, U-118 MG, and SCC-15 cells after 48-h incubation with 5–40 µM alvaxanthone or rheediaxanthone B. Median results are presented of three independent experiments, each performed in triplicate. The whiskers are lower (25%) and upper (75%) quartile ranges.
The Apo-ONE® Homogenous Caspase-3/7 Assay provides a measurement of the executioner caspases 3/7 activation, characteristic for apoptosis induced via both the intrinsic and extrinsic pathway. It was used to determine apoptosis induction in cells by alvaxanthone and rheediaxanthone B. In each of the three cell lines, compared to the respective non-treated control, treatment with each of the two compounds for 48 h led to a significant activation of the caspases 3/7 (by 2- to 10-fold for alvaxanthone and 8- to 18-fold for rheediaxanthone B), the effect being stronger in cancer than normal cells (Figure 4).
as §4

BJ cells [11] = assay: Intracellular ATP level (CellTiterGlo); type: cell-based, human; settings: 48-h incubation, fibroblasts
Description: as §7
(§8) On the other hand, rheediaxanthone B caused a reduction of ATP level down to around 30% in glioma cells and fibroblasts, and to 20% in squamous carcinoma cells (Figure 4). In general, with increasing Caspase-3/7 activity the ATP level was decreasing, in accord with the results of Reference.
as §4

SCC-15 cells [12] = assay: Intracellular ATP level (CellTiterGlo); type: cell-based, human; settings: 48-h incubation, squamous carcinoma cells
Description: as §7, §8, §4

U-118 MG cells [13] = assay: Intracellular ATP level (CellTiterGlo); type: cell-based, human; settings: 48-h incubation, glioma cells
Description: as §7, §8, §4

[14] = IC50 Assessment, 20 µM dUMP, 50 µM meTHF
[15] = 20 µM dUMP, 50 µM meTHF, read-out: IC50 Assessment
[16] = 20 µM dUMP and 50 µM meTHF, experiment not repeated, read-out: IC50

SMILES: COc1c(O)cc2oc3cc(O)c(CC=C(C)C)c(O)c3c(=O)c2c1CC=C(C)C [α-Mangostin (21), α-Mangostin, reference compound]
- remaining activity at 10 µM (hTS; 20 µM dUMP, 50 µM meTHF): 89%
- remaining activity at 100 µM (hTS; 20 µM dUMP, 50 µM meTHF): 19%
- remaining activity at 10 µM (mTS; 20 µM dUMP, 50 µM meTHF): 75%
- remaining activity at 100 µM (mTS; 20 µM dUMP, 50 µM meTHF): 5%
- remaining activity at 10 µM (CeTS; 20 µM dUMP, 50 µM meTHF): 79%
- remaining activity at 100 µM (CeTS; 20 µM dUMP, 50 µM meTHF): 27%
- IC50 (TsTS; [14]): > 100 µM
- remaining activity at 100 µM (TsTS; 20 µM dUMP, 50 µM meTHF): 85%
- LC50 (C. elegans [1]): 3.8 µM

SMILES: COc1ccc2oc3ccccc3c(=O)c2c1 [2-OMe-Xanthone (20), 2-OMe-Xanthone]
- remaining activity at 1000 µM (hTS): 88%
- IC50 (hTS; [15]): > 1000 µM
- remaining activity at 1000 µM (mTS): 84%
- IC50 (mTS; [15]): > 1000 µM
- remaining activity at 1000 µM (CeTS): 95%
- IC50 (CeTS; [14]): > 1000 µM
- IC50 (TsTS; [14]): > 1000 µM
- remaining activity at 1000 µM (TsTS; compound 1000 µM, 20 µM dUMP, 50 µM meTHF): 92%
- LC50 (C. elegans [2]): 33.8 ± 2.1 µM
- IC50 [3]: > 40 µM
- IC50 [4]: > 40 µM
- IC50 ([5]; U-118-MG): > 40 µM

SMILES: COC(=O)Nc1nc2ccc(C(=O)c3ccccc3)cc2[nH]1 [mebendazole]
- LC50 (C. elegans [1]): 4 µM

SMILES: C=CC(C)(C)c1c2c(c3oc4c(O)c(O)ccc4c(=O)c3c1O)C(C)(C)C(C)O2 (stereo not shown) [Rheediaxanthone B (17), Rheediaxanthone B]
- IC50 (hTS; 20 µM dUMP and 50 µM meTHF, mean ± S.E.M. (N=3) for alvaxanthone, rheediaxanthone B not repeated, read-out: IC50): 17.9 µM
- remaining activity at 10 µM (hTS; 20 µM dUMP, 50 µM meTHF): 59%
- remaining activity at 100 µM (hTS; 20 µM dUMP, 50 µM meTHF): 5%
- IC50 (mTS; [16]): 14.3 µM
- remaining activity at 10 µM (mTS; 20 µM dUMP, 50 µM meTHF): 56%
- remaining activity at 100 µM (mTS; 20 µM dUMP, 50 µM meTHF): 2%
- IC50 (CeTS; [16]): 11.4 µM
- remaining activity at 10 µM (CeTS; 20 µM dUMP, 50 µM meTHF): 59%
- remaining activity at 100 µM (CeTS; 20 µM dUMP, 50 µM meTHF): 14%
- IC50 (TsTS; IC50, 20 µM dUMP and 50 µM meTHF, mean ± S.E.M. (N=3) for alvaxanthone, rheediaxanthone B not repeated): 50.8 µM
- remaining activity at 10 µM (TsTS; compound 10 µM, 20 µM dUMP, 50 µM meTHF): 68%
- remaining activity at 100 µM (TsTS; 20 µM dUMP, 50 µM meTHF): 40%
- LC50 (C. elegans [2]): 16 ± 10.2 µM
- IC50 ([3]; neutral red assay, BJ, read-out: IC50): 5.5 µM
- IC50 ([4]; SCC-15, neutral red assay, read-out: IC50): 9.2 µM
- IC50 ([5]; neutral red assay, U-118 MG, read-out: IC50): 4.75 µM
- IC50 [6]: < 10 µM
- concentration at which reduction of adhesion is significant/apparent (BJ cells [7]): 5 µM
- concentration at which reduction of adhesion is significant/apparent (SCC-15 cells [8]): 5 µM
- concentration at which reduction of adhesion is significant/apparent (U-118 MG cells [9]): 10 µM
- activation of the caspases 3/7 compared to non-treated control [10]: 8- to 18 fold
- ATP level reduced down to (BJ cells [11]): around 30%
- ATP level reduced down to (SCC-15 cells [12]): 20%
- ATP level reduced down to (U-118 MG cells [13]): around 30%
